Test results published in ChEMBL document CHEMBL1156536, “Thiocarbamates as non-nucleoside HIV-1 reverse transcriptase inhibitors. Part 2: Parallel synthesis, molecular modelling and structure-activity relationship studies on analogues of O-(2-phenylethyl)-N-phenylthiocarbamate” (Bioorg Med Chem, 2008).
The source made the active and inactive calls. No cut-off for these calls is given here.

Columns and labels:
[1] = test system: Human immunodeficiency virus 1; test: Antiviral activity against HIV1 in human MT4 cells assessed as inhibition of virus-induced cytopathogenicity by MTT assay; format: functional, organism-based; conditions: Human immunodeficiency virus 1, MT4
[2] = Cytotoxicity against mock-infected human MT4 cells by MTT assay; format: cell-based
[3] = Selectivity index, ratio of CC50 for human MT4 cells to EC50 for HIV1; format: toxicity, cell-based; conditions: read-out: Ratio CC50/EC50
[4] = target: Human immunodeficiency virus type 1 reverse transcriptase (Human immunodeficiency virus 1, UniProt Q72547); test: Inhibition of HIV1 recombinant wild type reverse transcriptase
[5] = test system: Human immunodeficiency virus 1; test: Reduction of HIV1 p24 antigen level in virus infected C8166 cells; format: functional; conditions: Human immunodeficiency virus 1, C8166
[6] = test system: Human immunodeficiency virus 1; test: Antiviral activity against HIV1 with reverse transcriptase K103N/Y181C mutation in human MT4 cells assessed as inhibition of virus-induced cytopathogenicity by MTT assay; format: functional, organism-based; conditions: for EC50: Human immunodeficiency virus 1, MT4
[7] = test system: Human immunodeficiency virus 1; test: Antiviral activity against HIV1 with reverse transcriptase Y181C mutation in human MT4 cells assessed as inhibition of virus-induced cytopathogenicity by MTT assay; format: functional, organism-based; conditions: Human immunodeficiency virus 1, MT4

| SMILES | EC50 [1] | CC50 [2] | selectivity ratio [3] | IC50 [4] | EC90 [5] | Activity [6] | EC50 [7] | EC50 [6] |
| --- | --- | --- | --- | --- | --- | --- | --- | --- |
| Cc1ccc(NC(=S)OC(C)COc2ccccc2)cc1Cl (racemic) | 4 µM | > 100 µM | > 25 | – | – | – | – | – |
| COc1cccc(CCOC(=S)Nc2ccc(Cl)c([N+](=O)[O-])c2)c1 | 2 µM | 43 µM | 22 | – | – | – | – | – |
| Cc1ccccc1CCOC(=S)Nc1ccc([N+](=O)[O-])cc1 | 0.7 µM | > 100 µM | > 143 | – | – | – | – | – |
| S=C(Nc1ccccc1)OCC(c1ccccc1)c1ccccc1 | > 100 µM | > 100 µM | – | – | – | – | – | – |
| CC(COc1ccccc1)OC(=S)Nc1ccccc1 (racemic) | 2 µM | > 100 µM | > 50 | 1 µM | – | – | – | – |
| CC(COc1ccccc1)OC(=S)Nc1ccc(F)cc1 (racemic) | 11 µM | > 100 µM | > 9 | – | – | – | – | – |
| S=C(Nc1ccccc1)OCCOc1ccccc1 | 5.8 µM | > 100 µM | > 17 | – | – | – | – | – |
| S=C(Nc1ccc(Cl)cc1)OCCOc1ccccc1 | 2.9 µM | 34 µM | 12 | – | – | – | – | – |
| S=C(Nc1ccc(Cl)cc1)OCCc1ccccc1 | – | > 100 µM | – | – | – | – | – | – |
| CC(COC(=S)Nc1ccc(Cl)c([N+](=O)[O-])c1)c1ccccc1 (racemic) | 0.5 µM | 41 µM | 82 | – | – | – | – | – |
| COc1ccc(NC(=S)OCCOc2ccccc2)cc1 | 17 µM | 48 µM | 2.8 | – | – | – | – | – |
| S=C(Nc1ccccc1)OC1Cc2ccccc2C1 | 12 µM | > 100 µM | > 8.3 | – | – | – | – | – |
| S=C(Nc1ccccc1)OC/C=C/c1ccccc1 | 67 µM | > 100 µM | > 1.5 | – | – | – | – | – |
| O=[N+]([O-])c1ccc(NC(=S)OCCc2ccc(Br)cc2)cc1 | 7.9 µM | > 100 µM | > 13 | – | – | – | – | – |
| O=[N+]([O-])c1ccc(NC(=S)OCCc2ccccc2Cl)cc1 | 0.4 µM | > 100 µM | > 250 | – | – | – | – | – |
| CC(COC(=S)Nc1ccc([N+](=O)[O-])cc1)c1ccccc1 (racemic) | 0.6 µM | > 100 µM | > 167 | – | 0.6 µM | – | – | – |
| S=C(NCCc1ccccn1)Nc1ccc(Br)cn1 [TROVIRDINE] | – | 60 µM | 3000 | – | 0.015 µM | – | – | – |
| COc1cccc(CCOC(=S)Nc2ccc([N+](=O)[O-])cc2)c1 | 0.2 µM | > 100 µM | > 500 | – | – | inactive | 8.3 µM | – |
| S=C(Nc1ccccc1)OCc1cccc(Oc2ccccc2)c1 | > 100 µM | > 100 µM | – | – | – | – | – | – |
| COc1ccccc1CCOC(=S)Nc1ccc(Cl)c([N+](=O)[O-])c1 | 0.9 µM | 44 µM | 49 | – | – | – | – | – |
| O=[N+]([O-])c1ccc(NC(=S)OCCOc2ccccc2)cc1 | 8.5 µM | > 100 µM | > 12 | – | – | – | – | – |

| SMILES | EC50 [1] | CC50 [2] | selectivity ratio [3] | IC50 [4] | EC90 [5] | Activity [6] | EC50 [7] | EC50 [6] |
| --- | --- | --- | --- | --- | --- | --- | --- | --- |
| Cc1ccc(CCOC(=S)Nc2ccc([N+](=O)[O-])cc2)cc1 | 0.3 µM | > 100 µM | > 333 | – | – | – | 8.6 µM | 92 µM |
| CC(Cc1ccccc1)OC(=S)Nc1ccccc1 (racemic) | 9 µM | > 100 µM | > 11 | – | – | – | – | – |
| O=C1Nc2ccc(Cl)cc2C(C#CC2CC2)(C(F)(F)F)O1 (single isomer, unassigned) [EFAVIRENZ] | – | – | – | – | – | – | – | 0.04 µM |
| Cc1ccc(NC(=S)OCCc2ccccc2)cc1 | – | > 100 µM | – | – | – | – | – | – |
| CC(OC(=S)Nc1ccc(Cl)cc1)c1cccc2ccccc12 (racemic) | 82 µM | > 100 µM | > 1.2 | – | – | – | – | – |
| O=[N+]([O-])c1ccc(OCCOC(=S)Nc2ccc(Cl)cc2)cc1 | > 72 µM | 72 µM | < 1 | – | – | – | – | – |
| S=C(Nc1ccccc1)OCCc1ccccc1 | – | 100 µM | – | – | – | – | – | – |
| Cc1ccc(NC(=S)OCCOc2ccccc2)cc1 | 10 µM | 74 µM | 7.4 | – | – | – | – | – |
| O=[N+]([O-])c1ccc(NC(=S)OCCc2ccc(O)cc2)cc1 | > 41 µM | 41 µM | < 1 | – | – | – | – | – |
| O=[N+]([O-])c1ccc(NC(=S)OCCc2ccccc2)cc1 | – | > 100 µM | – | – | – | – | – | – |
| S=C(Nc1ccccc1)OCc1c(Cl)cccc1Cl | > 100 µM | > 100 µM | – | – | – | – | – | – |
| CCC(OC(=S)Nc1ccccc1)c1ccccc1 (racemic) | > 100 µM | > 100 µM | – | – | – | – | – | – |
| S=C(Nc1ccccc1)OCCSc1ccccc1 | 38 µM | > 100 µM | > 2.6 | – | – | – | – | – |
| O=[N+]([O-])c1ccc(NC(=S)OCCOc2ccc(Br)cc2)cc1 | > 100 µM | > 100 µM | – | – | – | – | – | – |
| Cc1ccc(NC(=S)OC(C)COc2ccccc2)cc1 (racemic) | 1.2 µM | 24 µM | 20 | 1.4 µM | – | – | – | – |
| COc1ccccc1CCOC(=S)Nc1ccc(Cl)cc1 | 0.07 µM | 43 µM | 614 | – | – | inactive | 8.9 µM | – |
| CC(COc1ccccc1)OC(=S)Nc1ccc([N+](=O)[O-])cc1 (racemic) | 2.6 µM | > 100 µM | > 38 | – | – | – | – | – |
| COc1ccc(NC(=S)OCCc2ccccc2)cc1 | – | 36 µM | – | – | – | – | – | – |
| S=C(Nc1ccccc1)OCc1cccs1 | > 38 µM | 38 µM | < 1 | – | – | – | – | – |
| CC(OC(=S)Nc1ccc([N+](=O)[O-])cc1)c1ccc(Cl)cc1 (racemic) | 7 µM | > 100 µM | > 14 | – | – | – | – | – |
| O=[N+]([O-])c1ccc(NC(=S)OCCc2ccccc2O)cc1 | 10 µM | 36 µM | 3.6 | – | – | – | – | – |

| SMILES | EC50 [1] | CC50 [2] | selectivity ratio [3] | IC50 [4] | EC90 [5] | Activity [6] | EC50 [7] | EC50 [6] |
| --- | --- | --- | --- | --- | --- | --- | --- | --- |
| CC(OC(=S)Nc1ccc(Cl)cc1)c1ccc(-c2ccccc2)cc1 (racemic) | 57 µM | > 100 µM | > 1.8 | – | – | – | – | – |
| CC(COc1ccccc1)OC(=S)Nc1ccc(Cl)cc1 (racemic) | 1.6 µM | > 100 µM | > 63 | – | – | – | – | – |
| CC(COC(=S)Nc1ccc(Cl)cc1)c1ccccc1 (racemic) | 0.2 µM | 30 µM | 150 | – | – | inactive | 12 µM | – |
| COc1cccc(CCOC(=S)Nc2ccc(Cl)cc2)c1 | 0.08 µM | 94 µM | 1180 | – | – | – | 12 µM | 86 µM |
| COc1ccc(NC(=S)OC(C)COc2ccccc2)cc1 (racemic) | > 100 µM | > 100 µM | – | – | – | – | – | – |
| COc1cccc(CCOC(=S)Nc2ccc(Cl)c(Cl)c2)c1 | 1 µM | 44 µM | 44 | – | – | – | – | – |
| CC(COC(=S)Nc1ccc(Cl)c(Cl)c1)c1ccccc1 (racemic) | 0.3 µM | 44 µM | 147 | – | – | – | – | – |
| COc1ccc(CCOC(=S)Nc2ccc([N+](=O)[O-])cc2)cc1 | 1.4 µM | > 100 µM | > 71 | – | – | – | – | – |
| CC(OC(=S)Nc1ccc(Cl)cc1)c1ccc2ccccc2c1 (racemic) | 26 µM | > 100 µM | > 3.8 | – | – | – | – | – |
| S=C(Nc1ccccc1)OCC1(c2ccccc2)CC1 | 7 µM | 51 µM | 7.3 | – | – | – | – | – |
| COc1ccccc1CCOC(=S)Nc1ccc(Cl)c(Cl)c1 | 0.3 µM | > 45 µM | > 150 | – | – | – | – | – |
| COc1ccccc1CCOC(=S)Nc1ccc([N+](=O)[O-])cc1 | 0.1 µM | > 100 µM | > 1000 | – | – | – | – | – |
| S=C(Nc1ccccc1)OCCCc1ccccc1 | 67 µM | > 100 µM | > 1.5 | – | – | – | – | – |
| S=C(Nc1ccccc1)OCC1COc2ccccc2O1 (stereo unspecified) | 52 µM | > 100 µM | > 1.9 | – | – | – | – | – |
| O=[N+]([O-])c1ccc(NC(=S)OCCc2cccc(Cl)c2)cc1 | 1.5 µM | > 100 µM | > 67 | – | – | – | – | – |
| O=[N+]([O-])c1ccc(NC(=S)OCCc2cccc(O)c2)cc1 | 3.7 µM | 24 µM | 6.5 | – | – | – | – | – |
| CC(Cc1ccccc1)OC(=S)Nc1ccc([N+](=O)[O-])cc1 (racemic) | 1.3 µM | 39 µM | 30 | – | – | – | – | – |
| O=[N+]([O-])c1ccc(NC(=S)OCCc2ccc(Cl)cc2)cc1 | 13 µM | > 100 µM | > 7.7 | – | – | – | – | – |
| Oc1ccccc1OCCOC(=S)Nc1ccccc1 | 19 µM | > 100 µM | > 5.2 | – | – | – | – | – |
| Cc1cccc(CCOC(=S)Nc2ccc([N+](=O)[O-])cc2)c1 | 0.5 µM | 96 µM | 192 | – | – | – | 8.9 µM | 69 µM |
| CC(OC(=S)Nc1ccccc1)c1ccc(Cl)cc1 (racemic) | 5.3 µM | > 100 µM | > 19 | – | – | – | – | – |
